In patent publication US20070208031A1, “Substituted Diketopiperazines as Oxytocin Antagonists” (priority 2004, published 2007):

Tests used:
[1] = In vitro intrinsic clearance in microsomes (Assay 3), human; type: in vitro ADME; conditions: pH 7.4; heading: Assay 3 - Microsomal Cl; human female microsomes, 0.5 uM compound, 0.5 mg/mL protein
Description: (§1) Determination of In Vitro Intrinsic Clearance in Microsomes
(§2) NADP regeneration buffer for use in incubations was prepared fresh on the assay day. It contained 7.8 mg glucose-6-phosphate (mono-sodium salt), 1.7 mg NADP and 6 Units glucose-6-phosphate dehydrogenase per 1 mL of 2% sodium bicarbonate. Microsomes (human, female; cynomolgus monkey, female; dog, female; rat, female) were prepared in pH 7.4 phosphate buffer and contained 0.625 mg protein/mL. Unless stated, all subsequent steps were performed by a Tecan Genesis 150/8 RSP. A 1.25 mM stock solution of the compounds was prepared in Acetonitrile/water (1:1). 25 ul of the 1.25 mM stock solution was added to 600 ul of Acetonitrile/water (1:1) to give a 50 uM solution. For each species, the 50 uM solutions (10 uL) were added to microsomes (790 uL) in a microplate (Porvair, 96 deepwell, square).
(§3) 400 uL of the microsomal solution containing the compound was transferred to a microplate (Porvair, 96 deepwell, round) and was pre-warmed at 37° C. for five minutes prior to initiation of incubations. All incubations were initiated by addition of 100 uL of NADP regeneration system to the pre-warmed microsomes. The mixtures were incubated at 37° C. in a Techne heating block. Following 0, 3, 6, 12 and 30 minutes incubation, 20 uL aliquots were taken and added to 100 uL of acetonitrile containing internal standard.
(§4) For determination of the rate of metabolism, incubations were performed at a compound concentration of 0.5 uM and a protein concentration of 0.5 mg/mL. The concentration of solvent in the incubation was 0.5%.
(§5) Test compound concentrations were determined by LC/MS/MS; results were reported as analyte:internal standard peak area ratios.
(§6) The rate of disappearance was calculated by fitting a single exponential decay to the concentration-time curve using Excel and intrinsic clearance was calculated using the following formula: [formula] Results

[2] = In vitro intrinsic clearance in microsomes (Assay 3), rat; type: in vitro ADME; conditions: pH 7.4; heading: Assay 3 - Microsomal Cl; rat female microsomes, 0.5 uM compound, 0.5 mg/mL protein
Description: as §1, §2, §3, §4, §5, §6

[3] = molecular target: T1, recombinant human Oxytocin-1 (hOT) receptor (Homo sapiens, UniProt P30559); assay: Determination of antagonist affinity at human Oxytocin-1 receptors using FLIPR (Assay 1); type: cell-based; conditions: CHO-hOT cells, FLIPR calcium response, oxytocin at EC80; read-out: fpki (Assay 1)
T1 construct: expressed in transfected cells
T1 sequence (P30559 1-389): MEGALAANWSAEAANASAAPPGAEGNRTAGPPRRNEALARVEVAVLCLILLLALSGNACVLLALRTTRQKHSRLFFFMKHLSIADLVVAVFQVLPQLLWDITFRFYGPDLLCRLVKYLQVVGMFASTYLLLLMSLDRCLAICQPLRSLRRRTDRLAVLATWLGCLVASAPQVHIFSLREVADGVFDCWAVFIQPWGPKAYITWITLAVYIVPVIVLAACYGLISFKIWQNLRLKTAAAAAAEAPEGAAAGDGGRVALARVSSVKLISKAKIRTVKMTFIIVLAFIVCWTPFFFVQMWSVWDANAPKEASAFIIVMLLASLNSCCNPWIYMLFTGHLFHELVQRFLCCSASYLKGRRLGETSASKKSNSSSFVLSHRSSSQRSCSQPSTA
Description: Determination of Antagonist Affinity at Human Oxytocin-1 Receptors using FLIPR
Adherent Chinese Hamster Ovary (CHO) cells, stably expressing the recombinant human Oxytocin-1 (hOT) receptor, were maintained in culture in DMEM:F12 medium (Sigma, cat no D6421), supplemented with 10% heat inactivated foetal calf serum (Gibco/lnvitrogen, cat. no.01000-147), 2 mM L-glutamine (Gibco/lnvitrogen, cat. no. 25030-024) and 0.2 mg/ml G418 (Gibco/lnvitrogen, cat no. 10131-027). Cells were grown as monolayers under 95%:5% air:CO2 at 37° C. and passaged every 3-4 days using TrypLE™ Express (Gibco/lnvitrogen, cat no. 12604-013).
Measurement of [Ca^2+]1 using the FLIPR™
CHO-hOT cells were seeded into black walled clear-base 384-well plates (Nunc) at a density of 10,000 cells per well in culture medium as described above and maintained overnight (95%:5% air:CO2 at 37° C.). After removal of culture medium, cells were incubated for 1 h at 37° C. in Tyrode's medium (NaCl, 145 mM; KCl, 2.5 mM; HEPES, 10 mM; Glucose, 10 mM; MgCl2, 1.2 mM; CaCl2, 1.5 mM) containing probenacid (0.7 mg/ml), the cytoplasmic calcium indicator, Fluo-4 (4 uM; Teflabs, USA) and the quenching agent Brilliant Black (250 uM; Molecular Devices, UK). Cells were then incubated for an additional 30min at 37° C. with either buffer alone or buffer containing OT antagonist, before being placed into a FLIPR™ (Molecular Devices, UK) to monitor cell fluorescence (λex=488 nm, λEM=540 nm) before and after the addition of a submaximal concentration of oxytocin (EC80).
Functional responses using FLIPR were analysed using Activity Base Version 5.0.10.

[4] = In vitro intrinsic clearance in microsomes (Assay 3), dog; type: in vitro ADME; conditions: pH 7.4; heading: Assay 3 - Microsomal Cl; dog female microsomes, 0.5 uM compound, 0.5 mg/mL protein
Description: as §1, §2, §3, §4, §5, §6

[5] = In vitro intrinsic clearance in microsomes (Assay 3), cynomolgus monkey; type: in vitro ADME; conditions: pH 7.4; heading: Assay 3 - Microsomal Cl, Cyno; cynomolgus monkey female microsomes, 0.5 uM compound, 0.5 mg/mL protein
Description: as §1, §2, §3, §4, §5, §6

[6] = molecular target: T2, human recombinant oxytocin receptors (Homo sapiens, UniProt P30559); assay: Oxytocin binding assay, [3H]-oxytocin competition on CHO membranes (Assay 2); conditions: ~2.4 nM [3H]-oxytocin, Cheng-Prusoff, read-out: pKi (Assay 2) (converted)
T2 construct: expressed in transfected cells; host or cells: CHO cells (membrane preparation)
T2 sequence (P30559 1-389): T1 sequence (P30559 1-389)
Description: Membranes were prepared from CHO cells expressing human recombinant oxytocin receptors. The membrane preparation was frozen in aliquots at −70° C. until used.
Membranes (˜50 ug) were incubated in 200 ul of assay buffer (50 mM Tris, 10 mM MgCl2, and 0.1% bovine serum albumin, pH 7.5) containing ˜2.4 nM of [3H]-oxytocin in the absence (total binding) or presence (non-specific binding) of 1 uM unlabeled oxytocin and increasing concentrations of the compounds in Examples 1 and 2 or comparator compounds. Incubations were performed at room temperature for 60 minutes. The reactions were stopped with 3 ml of ice cold buffer and filtered through Whatman GF/C filter paper presoaked in 0.3% polyethylenimine. The filters were washed 4 times with 3 ml buffer using a Brandel cell harvester. The filters were counted in 3 ml Ready Safe scintillation fluid (Beckman).
Specific binding represented approximately 90% of total binding.
IC50 values were determined from competition binding experiments using non-linear regression analysis (GraphPad) and converted to Ki using the method of Cheng and Prusoff, 1974. Data are reported as mean values.

| microsomal CLint at 0.5 uM [1] [mL/min/g] | microsomal CLint at 0.5 uM [2] [mL/min/g] | Ki [3] [nM] | microsomal CLint at 0.5 uM [4] [mL/min/g] | microsomal CLint at 0.5 uM [5] [mL/min/g] | Ki [6] [nM] | Structure (SMILES) |
| --- | --- | --- | --- | --- | --- | --- |
| 16 to 20 | 1 to 8 | 2 to 3.16 | 1 to 8 | 21 to 30 | 0.0398 to 0.126 | CC(C)C[C@@H]1C(=O)N[C@H](C2Cc3ccccc3C2)C(=O)N1[C@@H](C(=O)N(C)C)c1ccc(F)cc1F [Comparator compound Y, (2R)-2-(2,4-difluorophenyl)-2-[(3R,6R)-3-(2,3-dihydro-1H-inden-2-yl)-6-isobutyl-2,5-dioxopiperazin-1-yl]-N,N-dimethylethanamide, reference compound] |
| > 31 | 9 to 15 | – | 16 to 20 | > 31 | – | CC(C)C[C@@H]1C(=O)N[C@H](C2Cc3ccccc3C2)C(=O)N1[C@@H](C(=O)N(C)C)c1ccc2[nH]ncc2c1 [Comparator compound X, (2R)-2-[(3R,6R)-3-(2,3-dihydro-1H-inden-2-yl)-6-isobutyl-2,5-dioxopiperazin-1-yl]-2-(1H-indazol-5-yl)-N,N-dimethylethanamide, reference compound] |
| 1 to 8 | 1 to 8 | 2 to 3.16 | 1 to 8 | 9 to 15 | 0.0398 to 0.126 | CC[C@H](C)[C@@H]1C(=O)N[C@H](C2Cc3ccccc3C2)C(=O)N1[C@@H](C(=O)NC)c1ccc2c(cnn2C)c1 [Example 1, (2R)-2-{(3R,6R)-3-(2,3-Dihydro-1H-inden-2-yl)-6-[(1S)-1-methylpropyl]-2,5-dioxo-1-piperazinyl}-N-methyl-2-(1-methyl-1H-indazol-5-yl)ethanamide] |
| 1 to 8 | 1 to 8 | 2 to 3.16 | 1 to 8 | 9 to 15 | 0.0398 to 0.126 | CC[C@H](C)[C@@H]1C(=O)N[C@H](C2Cc3ccccc3C2)C(=O)N1[C@@H](C(=O)N(C)C)c1ccc2c(cnn2C)c1 [Example 2, (2R)-2-{(3R,6R)-3-(2,3-Dihydro-1H-inden-2-yl)-6-[(1S)-1-methylpropyl]-2,5-dioxo-1-piperazinyl}-N,N-dimethyl-2-(1-methyl-1H-indazol-5-yl)ethanamide] |
